Reference: patent US10329518B2, “Anionic surfactants” (Novus International Inc., priority 2015, dated 2019)
Read-outs that look alike come from different tables or passages of the source.

Columns and labels:
[1] = Hardness (calcium chloride) tolerance; format: physicochemical; conditions: for CaCl2 Tolerance / Hardness Tolerance: CaCl2 added, cooled to 4° C., heated to 25° C., visual
Procedure: The Krafft temperature of the surfactant with the concentration at the room temperature CMC was determined by cooling the solution to 4° C. and then raising the temperature by 1° C. steps and visually inspecting its phase behavior after the solution reached thermal equilibrium. For hardness tolerance, a known amount of calcium chloride was added to the solution prior to cooling to 4° C.

[2] = Surface tension by Wilhelmy plate tensiometer; CMC from break point of surface tension vs. log C; format: physicochemical; conditions: room temperature
Procedure: The solubility of the surfactants in water was assessed visually at room temperature. The mixture at each concentration was examined after at least 10 min of mild shaking and ultrasonic bath agitation to see if the surfactant completely dissolved. […] Surface tension was determined with a Wilhelmy Plate tensiometer (Cahn DCA-322) at room temperature. Glass slides manufactured by Corning with a width of 22 mm and thickness of 0.1 mm were used as probes. The motor speed was set to be 100 μm/sec. The CMC was determined from the break point of Υvs. log C diagram with a custom Microsoft Visual Basic program.

[3] = Krafft temperature determination; format: physicochemical; conditions: within 48 hours
Procedure: […] the solution to 4° C. and then raising the temperature by 1° C. steps and visually inspecting its phase behavior after the solution reached thermal equilibrium. For hardness tolerance, a known amount of calcium chloride was added to the solution prior to cooling to 4° C.

[4] = Water solubility assessed visually at room temperature; format: physicochemical; conditions: in water, visual assessment
Procedure: Dowex MAC-3 resin (proton form) was swollen and neutralized with excess NaOH/water solution, and then assembled into a column. After the resin was balanced with 2 column volumes of 30 vol % water in ethanol, 1 column volume of a 0.1 g/mL acid in 30 vol % water in ethanol solution was loaded and incubated in the column for 10 min. Subsequently, the resin was rinsed with 2 column volumes of 30 vol % water in ethanol, and the eluent was collected. The pH of the 1 wt % solutions/suspensions of the solids increased from 4 to 8 after passing through the column. The solvent was then evaporated under vacuum at mild heat (40° C.) to provide the sodium carboxylate salts. The sodium salts were fully soluble in water (deionized with 18MΩ resistivity), while the starting carboxylic acids were insoluble. The solubility of the surfactants in water was assessed visually at room temperature. The mixture at each concentration was examined after at least 10 min of mild shaking and ultrasonic bath agitation to see if the surfactant completely dissolved. […] Surface tension was determined with a Wilhelmy Plate tensiometer (Cahn DCA-322) at room temperature. Glass slides manufactured by Corning with a width of 22 mm and thickness of 0.1 mm were used as probes. The motor speed was set to be 100 μm/sec. The CMC was determined from the break point of Υvs. log C diagram with a custom Microsoft Visual Basic program.

[5] = Draves wetting test (ASTM D2281-68); format: physicochemical
Procedure: The Draves wetting test was performed according to ASTM […]-68. 500 mL of surfactant solution was poured into a 500 mL graduated cylinder (38 cm in height), and a 5.0 g standard skein hooked with a lead anchor was dropped into the solution. The skein floats in the solution initially and sinks when wetted, and the time taken was recorded as the time of wetting.

[6] = Ross-Miles foam test (ASTM D1173-07); format: physicochemical; conditions: 1 wt % solution
Procedure: The Ross-Miles foam test was performed according to the test protocol described in ASTM D1173-07. […] 50 mL of each surfactant solution (1 wt %) was carefully poured into the 1 meter glass column, without creating any foam, which is called the receiver. A 200 mL pipette with the surfactant solution is placed 90 cm above the receiver and the solution is allowed to drop into the foam receiver. The height of the foam produced is measured immediately and after 5 minutes.

[7] = cited from earlier work; for CMC/C20: literature value (footnotes b, d)
[8] = literature value (footnote c); cited from earlier work
[9] = literature value (footnotes a, c); cited from earlier work
[10] = literature value (footnotes a, b); cited from earlier work

CMC [2] [mM]	CMC/C20 [2]	pC20 [2]	ΥCMC (surface tension at CMC) [2] [mN/m]	Precipitation of 1 wt % solution in 4° C. water bath [3]	Water Solubility [4]	Draves wetting time of 0.1 wt % solution [5] [s]	Molecule	CaCl2 Tolerance [1] [µM]	Hardness Tolerance [1] [ppm as CaCO3]	CMC/C20 [7]	also measured
0.54	4.56	4.07	42	did not show precipitation	117 mM		CCCCCCCCCCCCCCCC(=O)OC(CC[S+](C)[O-])C(=O)[O-].[Na+] (centres unmarked) [C16ESOCOONa]	100	10		
1.7	3.15	3.27	40	did not show precipitation	>1000^ mM		CCCCCCCCCCCC(=O)OC(CC[S+](C)[O-])C(=O)[O-].[Na+] (centres unmarked) [C12ESOCOONa]	5000	500		Hardness tolerance (of CaCl2) ([1]; text of b163): 5000 µM; Hardness tolerance relative to the unoxidized form ([1]; versus C12ESCOONa): 50 times
1.0	5.55	3.84	35	did not show precipitation	282 mM	11	CCCCCCCCCCCC(=O)OC(CCSC)C(=O)[O-].[Na+] (centres unmarked) [C12ESCOONa]	100	10		Calcium tolerance relative to the linear carboxylate (NaL) ([1]; versus NaL): approximately 2.5 orders of magnitude; Calcium tolerance relative to the linear sulfate SDS ([1]; versus SDS): about half an order of magnitude better; Draves wetting performance compared with references ([5]; 0.1 wt % solutions): outperformed NaL in wetting time with a comparable performance to SDS; Foam dissipation ([6]; foam height immediately and after 5 minutes): dissipates much faster; Foam height ([6]; versus SDS, SDBS, AES): comparable to the reference anionic surfactants
						11	CCCCCCCCCCCCOS(=O)(=O)[O-].[Na+] [SDS, sodium dodecyl sulfate]			2.6^d	CMC ([7]; literature value (footnote d)): 12.4^d mM; pC20 ([7]; literature value (footnote d)): 2.36^d; ΥCMC (surface tension at CMC) ([7]; literature value (footnote d)): 40^d mN/m; CaCl2 Tolerance [8]: 40^c μM; Hardness Tolerance [8]: 4^c ppm as CaCO3
3.1	5.30	3.24	34				sodium dodecylbenzene sulfonate [SDBS, reference compound]				Water Solubility [9]: 575^a mM

Molecule	CMC [2] [mM]	CMC/C20 [2]	pC20 [2]	ΥCMC (surface tension at CMC) [2] [mN/m]	Precipitation of 1 wt % solution in 4° C. water bath [3]	Water Solubility [4]	Draves wetting time of 0.1 wt % solution [5] [s]	CaCl2 Tolerance [1] [µM]	Hardness Tolerance [1] [ppm as CaCO3]	CMC/C20 [7]	also measured
CCCCCCCCCCCC(=O)[O-].[Na+] [NaL, sodium laurate, reference compound]	19.1		3.32	30			52	0.5	0.05	38.5^b	Krafft Point [10]: 13^a ° C.; solubility ([4]; thermodynamic from solid): 90 mM
